# Measurements reported in patent publication US5853742A, “Cosmetic compositions containing lactate dehydrogenase inhibitors” (priority 1997, dated 1998).
# “And” between values parts separate entries of the source, which are not always exact repeats. Equal entries are not always repeated. Where two headings read alike, the source gives them in different places.
# Tests used:
# [1] = system: Neonatal human dermal fibroblasts; assay: Collagen synthesis (secreted procollagen 1 immunoassay); assay type: cell-based; settings: 0.2 to 20 mM, 48 hours, serum-free medium
# Protocol: Neonatal human dermal fibroblasts were purchased from Clonetics Corp., San Diego, Calif. All materials for cell culture were purchased from Life Technologies, N.Y. Cells were maintained in DMEM with 10% fetal bovine serum and used in passages 5-10, Confluent 96-well plates containing fibroblasts were treated with test materials (0.2 to 20 mM) in serum-free medium for 48 hours. […] This was carried out in a BioDot SF apparatus according to the manufacturer's instructions (BioRad Labs, CA) and the blot was developed using a Vectastain Kit (PK6104, Vector Labs, CA) as per the manufacturer's directions. Color intensity was quantitated using an Ultroscan XL densitometer (Pharmacia LKB). Fold increase was calculated as (density of treated)/untreated.
# [2] = system: Normal human epidermal keratinocytes (NHEK); assay: Keratinocyte proliferation (DNA content, fluorometric); assay type: cell-based
# Protocol: Normal human epidermal keratinocytes (NHEK) derived from neonatal foreskin were used for all experiments. Media were purchased from Clonetics Corp., San Diego, Calif. Cell stocks frozen in passage 2 were grown in Keratinocyte Growth Medium (KGM) and passaged when 70-80% confluent. Cells were seeded in 96 well plates (Corning) at a density of 7500 cells/well in KGM. After 24 hours, cells were rinsed and dosed with test compounds in 200 μl of Keratinocyte Basal Medium (KBM). Plates were incubated for three days at 37° C., 5% CO2. Cell proliferation was estimated by assaying for DNA content by a fluorometric method described by Rago et al. (Analytical Biochemistry, 191:31-34, 1990). Medium was removed and cells were rinsed with phosphate buffered saline solution. 100 μl of sterile distilled water was added to each well and plates were frozen at -70° C. for one and a half hours. Plates were thawed for one hour at which time 100 μl of a 20 ug/ml solution of Bisbenzimide H33258 fluorochrome (Calbiochem Corp., La Jolla, Calif.) was added to each well. The fluorochrome was prepared just prior to use in 10 mM Tris, 1 mM EDTA, 4M NaCl, pH 7.4. Plates were read in a Millipore Cytofluor fluorescent plate reader to quantify DNA (excitation 360 nm, emission 460 nm). Percent increase over control was calculated from blank-corrected readings as (treated-untreated)/(untreated)*100%.
# [3] = system: Fibroblast Lactate Dehydrogenase; assay: Lactate dehydrogenase (LDH) inhibition, fibroblast lysate; assay type: biochemical, human
# Protocol: All reagents were purchased from Sigma Chemical Co., St. Louis, Mo, USA. Sigma procedure No. 500 was modified for our purposes. One mL of pyruvate substrate (Sigma […]-1, pH=7.5) was added to a vial containing 1 mg NADH (Sigma 340-101). In a 96-well plate, the following components were added to each test well: 10 μl pyruvate/NADH mixture, and 10 μl cell lysate. For preparation of cell lysates, neonatal human keratinocytes or fibroblasts (Clonetic Corp., San Diego, Calif.) were cultured in tissue culture plates (Corning, USA). Cells were scraped in PBS (pH=7.4) and this solution was used as a source of L-lactate dehydrogenase. If such cell lysate was not available, a commercial preparation of L-lactic dehydrogenase (E.C.1.1.1.27), Sigma L9889, from porcine heart could be used in place of the cell lysate. For positive control, the inhibitor was replaced with 10 μl of PBS. For blank determination, the lysate or enzyme was replaced with […]. After mixing, the plate was incubated for 30 minutes at 37° C. Then 20 μl of color reagent (Sigma 505-2) was added to each well. After 20 minutes at room temperature, 150 μI of 0.4N NaOH was added, and the plate was read for absorbance at 490 nm in a Dynatech MR 7000 Microplate Reader. To calculate % inhibition, the control activity (CA) was first determined by subtracting the absorbance of the positive control from the blank, Then the activity in the presence of the inhibitor (IA) was calculated by subtracting the appropriate absorbance from the blank. %/, Inhibition was then calculated as: ((CA-IA)/CA)* 100%/.
compound,measurement,setting,value
CC(=O)O [Acetate],Maximum fold over Control (collagen synthesis),[1],2.0 fold
O=C(O)CC(O)(CC(=O)O)C(=O)O [Citrate],activation at 10 µM,"[2]; Homo sapiens, NHEK, 72 h, read-out: % Increase Over Control (keratinocyte proliferation), Table 6, citrate 0.01 mM",25%
same,activation at 100 µM,"[2]; Homo sapiens, NHEK, 72 h, read-out: % Increase Over Control (keratinocyte proliferation), Table 6, citrate 0.1 mM",40%
same,activation at 150 µM,"[2]; Homo sapiens, NHEK, 72 h, read-out: % Increase Over Control (keratinocyte proliferation), Table 6, citrate 0.15 mM",18%
same,activation at 300 µM,"[2]; Homo sapiens, NHEK, 72 h, read-out: % Increase Over Control (keratinocyte proliferation), Table 6, citrate 0.3 mM",39%
same,activation at 600 µM,"[2]; Homo sapiens, NHEK, 72 h, read-out: % Increase Over Control (keratinocyte proliferation), Table 6, citrate 0.6 mM",35%
same,activation at 1000 µM,"[2]; Homo sapiens, NHEK, 72 h, read-out: % Increase Over Control (keratinocyte proliferation), Table 6, citrate 1.0 mM",20%
same,activation at 1250 µM,"[2]; Homo sapiens, NHEK, 72 h, read-out: % Increase Over Control (keratinocyte proliferation), Table 6, citrate 1.25 mM",18%
same,activation at 2500 µM,"[2]; Homo sapiens, NHEK, 72 h, read-out: % Increase Over Control (keratinocyte proliferation), Table 6, citrate 2.5 mM",0%
same,activation at 5000 µM,"[2]; Homo sapiens, NHEK, 72 h, read-out: % Increase Over Control (keratinocyte proliferation), Table 6, citrate 5.0 mM",0%
same,activation at 10000 µM,"[2]; Homo sapiens, NHEK, 72 h, read-out: % Increase Over Control (keratinocyte proliferation), Table 6, citrate 10 mM",0%
same,activation at 2 µM,"[2]; Homo sapiens, NHEK, 72 h, read-out: % Increase Over Control (keratinocyte proliferation), Table 7, 0.002 mM",22%
same,activation at 20 µM,"[2]; Homo sapiens, NHEK, 72 h, read-out: % Increase Over Control (keratinocyte proliferation), Table 7, 0.02 mM",31%
same,activation at 20000 µM,"[2]; Homo sapiens, NHEK, 72 h, read-out: % Increase Over Control (keratinocyte proliferation), Table 7, 20 mM",0%
C[C@@H](O)C(=O)O [D-lactate],% Inhibition,[3]; 0.625 mM,0%
same,% Inhibition,[3]; 1.25 mM,0%
same,% Inhibition,[3]; 2.5 mM,0%
same,% Inhibition,[3]; 5 mM,0%
N[C@@H](CCC(=O)O)C(=O)O [Glutamate],Maximum fold over Control (collagen synthesis),[1],3.6 fold
NCC(=O)O [Glycinate],% Inhibition,[3]; 0.625 mM,0%
same,% Inhibition,[3]; 1.25 mM,0%
same,% Inhibition,[3]; 2.5 mM,0%
same,% Inhibition,[3]; 5 mM,0%
O=C(O)CO [Glycolate],% Inhibition,[3]; 0.625 mM,0%
same,% Inhibition,[3]; 1.25 mM,0%
same,% Inhibition,[3]; 2.5 mM,0%
same,% Inhibition,[3]; 5 mM,0%
O=C(O)CC(C(=O)O)C(O)C(=O)O (stereo not shown) [Isocitrate],activation at 0.2 µM,"[2]; Homo sapiens, NHEK, 72 h, read-out: % Increase Over Control (keratinocyte proliferation), Table 8, isocitrate 0.0002 mM",0%
same,activation at 2 µM,"[2]; Homo sapiens, NHEK, 72 h, read-out: % Increase Over Control (keratinocyte proliferation), Table 8, isocitrate 0.002 mM",39%
same,activation at 156 µM,"[2]; Homo sapiens, NHEK, 72 h, read-out: % Increase Over Control (keratinocyte proliferation), Table 8, isocitrate 0.156 mM",32%
same,activation at 313 µM,"[2]; Homo sapiens, NHEK, 72 h, read-out: % Increase Over Control (keratinocyte proliferation), Table 8, isocitrate 0.313 mM",40%
same,activation at 625 µM,"[2]; Homo sapiens, NHEK, 72 h, read-out: % Increase Over Control (keratinocyte proliferation), Table 8, isocitrate 0.625 mM",32%
same,activation at 1250 µM,"[2]; Homo sapiens, NHEK, 72 h, read-out: % Increase Over Control (keratinocyte proliferation), Table 8, isocitrate 1.25 mM",40%
same,activation at 2000 µM,"[2]; Homo sapiens, NHEK, 72 h, read-out: % Increase Over Control (keratinocyte proliferation), Table 8, isocitrate 2.0 mM",40%
same,activation at 2500 µM,"[2]; Homo sapiens, NHEK, 72 h, read-out: % Increase Over Control (keratinocyte proliferation), Table 8, isocitrate 2.5 mM",32%
same,activation at 5000 µM,"[2]; Homo sapiens, NHEK, 72 h, read-out: % Increase Over Control (keratinocyte proliferation), Table 8, isocitrate 5.0 mM",18%
same,activation at 10000 µM,"[2]; Homo sapiens, NHEK, 72 h, read-out: % Increase Over Control (keratinocyte proliferation), Table 8, isocitrate 10 mM",0%
same,% Increase Over Control (keratinocyte proliferation),"[2]; Table 8, isocitrate 0.002 mM",20%
same,% Increase Over Control (keratinocyte proliferation),"[2]; Table 8, isocitrate 2.0 mM",30%
O=C(O)CCC(=O)C(=O)O [Ketoglutarate],Maximum fold over Control (collagen synthesis),[1],2.2 fold
O=C(O)C[C@H](O)C(=O)O [L-Malate],% Inhibition,[3]; 0.625 mM,0%
same,% Inhibition,[3]; 1.25 mM,0%
same,% Inhibition,[3]; 2.5 mM,0%
same,% Inhibition,[3]; 5 mM,0%
same,activation at 2 µM,"[2]; Homo sapiens, NHEK, 72 h, read-out: % Increase Over Control (keratinocyte proliferation), Table 5, L-malate 0.002 mM",34%
same,activation at 20 µM,"[2]; Homo sapiens, NHEK, 72 h, read-out: % Increase Over Control (keratinocyte proliferation), Table 5, L-malate 0.02 mM",27%
same,activation at 200 µM,"[2]; Homo sapiens, NHEK, 72 h, read-out: % Increase Over Control (keratinocyte proliferation), Table 5, L-malate 0.2 mM",36%
same,% Increase Over Control (keratinocyte proliferation),"[2]; Table 5, L-malate 0.2 mM",19% and 29%
same,% Increase Over Control,"[2]; Table 12, oxamate 0, malate 0.156 mM",33%
same,% Increase Over Control,"[2]; Table 12, oxamate 0, malate 0.313 mM",29%
same,% Increase Over Control,"[2]; Table 12, oxamate 0, malate 0.625 mM",36%
same,% Increase Over Control,"[2]; Table 12, oxamate 0, malate 1.25 mM",25%
same,% Increase Over Control,"[2]; Table 12, oxamate 0, malate 2.5 mM",39%
same,% Increase Over Control,"[2]; Table 12, oxamate 0, malate 5.0 mM",20%
C[C@H](O)C(=O)O [L-lactate],% Inhibition,[3]; 0.625 mM,0%
same,% Inhibition,[3]; 1.25 mM,0%
same,% Inhibition,[3]; 2.5 mM,0%
same,% Inhibition,[3]; 5 mM,0%
O=C(O)CC(=O)O [Malonate],% Inhibition,[3]; 0.625 mM,0%
same,% Inhibition,[3]; 1.25 mM,0%
same,% Inhibition,[3]; 2.5 mM,0%
same,% Inhibition,[3]; 5 mM,0%
O=C(O)CC(=O)C(=O)O [Oxaloacetate],activation at 2 µM,"[2]; Homo sapiens, NHEK, 72 h, read-out: % Increase Over Control (keratinocyte proliferation), Table 9, oxaloacetate 0.002 mM",11%
same,activation at 20 µM,"[2]; Homo sapiens, NHEK, 72 h, read-out: % Increase Over Control (keratinocyte proliferation), Table 9, oxaloacetate 0.02 mM",15%
same,activation at 80 µM,"[2]; Homo sapiens, NHEK, 72 h, read-out: % Increase Over Control (keratinocyte proliferation), Table 9, oxaloacetate 0.08 mM",56%
same,activation at 200 µM,"[2]; Homo sapiens, NHEK, 72 h, read-out: % Increase Over Control (keratinocyte proliferation), Table 9, oxaloacetate 0.2 mM",22%
same,activation at 2500 µM,"[2]; Homo sapiens, NHEK, 72 h, read-out: % Increase Over Control (keratinocyte proliferation), Table 9, oxaloacetate 2.5 mM",40%
same,activation at 5000 µM,"[2]; Homo sapiens, NHEK, 72 h, read-out: % Increase Over Control (keratinocyte proliferation), Table 9, oxaloacetate 5.0 mM",35%
same,activation at 20000 µM,"[2]; Homo sapiens, NHEK, 72 h, read-out: % Increase Over Control (keratinocyte proliferation), Table 9, oxaloacetate 20 mM",44%
same,% Increase Over Control (keratinocyte proliferation),"[2]; Table 9, oxaloacetate 0.02 mM",30%
same,% Increase Over Control (keratinocyte proliferation),"[2]; Table 9, oxaloacetate 0.2 mM",20%
same,% Increase Over Control (keratinocyte proliferation),"[2]; Table 9, oxaloacetate 2.5 mM",37%
same,% Increase Over Control (keratinocyte proliferation),"[2]; Table 9, oxaloacetate 5.0 mM",52%
same,Maximum fold over Control (collagen synthesis),[1],3.0 fold
c1cn[nH]c1 [Pyrazole],% Inhibition,[3]; 0.625 mM,0%
same,% Inhibition,[3]; 1.25 mM,0%
same,% Inhibition,[3]; 2.5 mM,0%
same,% Inhibition,[3]; 5 mM,0%
CC(=O)C(=O)O [Pyruvate],% Increase Over Control,"[2]; Table 11, oxamate 0, pyruvate 0.156 mM",2%
same,% Increase Over Control,"[2]; Table 11, oxamate 0, pyruvate 0.313 mM",0%
same,% Increase Over Control,"[2]; Table 11, oxamate 0, pyruvate 0.625 mM",3%
same,% Increase Over Control,"[2]; Table 11, oxamate 0, pyruvate 1.25 mM",0%
same,% Increase Over Control,"[2]; Table 11, oxamate 0, pyruvate 2.5 mM",7%
same,% Increase Over Control,"[2]; Table 11, oxamate 0, pyruvate 5.0 mM",0%
O=C(O)CCC(=O)O [Succinate],Maximum fold over Control (collagen synthesis),[1],2.8 fold
"CC(S)C(=O)O (stereo not shown) [Thio-Lactate, Thiolactate]",activation at 313 µM,"[2]; Homo sapiens, NHEK, 72 h, Table 4, 0.313 mM, read-out: % increase over control (keratinocyte proliferation)",9%
same,activation at 625 µM,"[2]; Homo sapiens, NHEK, 72 h, Table 4, 0.625 mM, read-out: % increase over control (keratinocyte proliferation)",29%
same,activation at 1250 µM,"[2]; Homo sapiens, NHEK, 72 h, Table 4, 1.25 mM, read-out: % increase over control (keratinocyte proliferation)",27%
same,activation at 2500 µM,"[2]; Homo sapiens, NHEK, 72 h, Table 4, 2.5 mM, read-out: % increase over control (keratinocyte proliferation)",5%
same,activation at 5000 µM,"[2]; Homo sapiens, NHEK, 72 h, Table 4, 5 mM, read-out: % increase over control (keratinocyte proliferation)",0%
Methyl pyrazole,% Inhibition,[3]; 0.625 mM,0%
same,% Inhibition,[3]; 1.25 mM,0%
same,% Inhibition,[3]; 2.5 mM,0%
same,% Inhibition,[3]; 5 mM,0%
